Counter-ions that a name gives are not always drawn.

The source of these data is patent publication US20060078570A1, “Use of asafetida extract as medicine for abstinence of drugs” (priority 2004, published 2006).

The subject of one experiment is morphine-dependent rats. As to the kind of experiment: Naloxone-promoted abstinence experiment in morphine-dependent rats (symptom scores and body weight decrease). It counts as in vivo, Wistar rat.
Experiment [1] relates to subjects addicted to drugs. As to the kind of experiment: Clinical trial: abstinence treatment of subjects addicted to drugs, asafetida injection intramuscularly. It counts as in vivo, human. Particulars: 20 cases per group, thrice per day, phenoxyimidazoline hydrochloride 0.1 mg tablet. An excerpt:
The typical performance of abstinence syndrome was as follows: yawning, lacrimation, perspiring, bad mood, anxiety, and dysphoria.
Apparently effective: the abstinence syndrome disappears completely and performance is normal.
Effective: the abstinence syndrome is obviously abated.
Ineffective: the abstinence syndrome has no obvious remission or no remission at all.
The subjects addicted to drugs were randomly grouped into asafetida injection treatment group, phenoxyimidazoline hydrochloride positive control group, placebo negative control group, wherein the phenoxyimidazoline hydrochloride is a relatively effective medicine for abstinence of drugs at present. The pharmaceuticals and usage thereof in each group were as follows:
Asafetida injection, 2 ml (equivalent to 1 g of original crude material)/bottle, thrice per day, a bottle per time, injected intramuscularly, for three consecutive days.
Phenoxyimidazoline hydrochloride, 0.1 mg/tablet, thrice per day, a tablet per time, for three consecutive days.
Placebo (physiological saline), 2 ml/bottle, thrice per day, a bottle per time, injected intramuscularly, for three consecutive days.

The subject of experiment [2] is subjects addicted to heroin for over 10 years. As to the kind of experiment: Clinical trial (typical case): subjects addicted to heroin for over 10 years, asafetida injection intravenously. It counts as in vivo, human. The conditions noted are these: 25 cases per group, heroin over 10 years, phenoxyimidazoline hydrochloride 0.1 mg tablet, thrice per day.
The mark [3] stands for this setting: clonidine 0.1 mg/kg perfused, X ± S, n=10.
The mark [4] stands for this setting: three days, asafetida 2 ml i.m.
[5] abbreviates: asafetida 5 ml i.v., three days.

Regarding `Clc1cccc(Cl)c1N=C1NCCN1` [clonidine, phenoxyimidazoline hydrochloride], the “Scores of performance and autonomic nervous system symptoms of rats after naloxone administration” value with morphine-dependent rats (clonidine 0.1 mg/kg perfused once a day, three times, 15 min after naloxone 4 mg/kg i.p., mean ± SD, n=10) is reported as 2.22 ± 2.29; with morphine-dependent rats (clonidine 0.1 mg/kg perfused, 30 min after naloxone), 2.68 ± 1.81; in the experiment with morphine-dependent rats (clonidine 0.1 mg/kg perfused, 45 min after naloxone) it was 1.21 ± 1.80; in the experiment with morphine-dependent rats (clonidine 0.1 mg/kg perfused, 60 min after naloxone), 1.61 ± 1.54; in the experiment with morphine-dependent rats (clonidine 0.1 mg/kg perfused, 90 min after naloxone) it was 0.40 ± 0.68; in the experiment on morphine-dependent rats (clonidine 0.1 mg/kg perfused, 120 min after naloxone) it was 0 ± 0. Further, the “body weight decreasing at 30 min after administrating naloxone” value in the experiment with morphine-dependent rats (setting [3]) came out at 4.077 ± 3.431 g. In addition, in the experiment with morphine-dependent rats (setting [3]), the “body weight decreasing at 60 min after administrating naloxone” value was determined as 5.560 ± 4.960 g. In addition, the “Apparently effective, Number of Cases” value amounted to 13 in experiment [1] (three consecutive days, asafetida injection 2 ml (1 g crude material) intramuscularly) and 15 in experiment [2] (three consecutive days, asafetida injection 5 ml (2.5 g crude material) intravenously). The “Apparently effective, %” value in experiment [1] (setting [4]) worked out at 65.00%; in experiment [2] (setting [5]), 60.00%. Besides, the “Effective, %” value in experiment [1] (setting [4]) was determined as 35.00%; in experiment [2] (setting [5]) it was 40.00%. The “Effective, Number of Cases” value is recorded as 7 in experiment [1] (setting [4]) and 10 in experiment [2] (setting [5]). Further, the “Ineffective, %” value in experiment [1] (setting [4]) and in experiment [2] (setting [5]) was 0% in each case. Besides, the “Ineffective, Number of Cases” value in experiment [1] (setting [4]) and in experiment [2] (setting [5]) was 0 throughout. For the same molecule, the “Total effective rate %” value in experiment [1] (setting [4]) and in experiment [2] (setting [5]) was 100% each time.
